Measurements from US11065235B2, “Substituted methanopyrido [2, 1-a] isoindolones as mAChR modulators for treating various associated pathophysiological conditions and process for preparation thereof” (COUNCIL OF SCIENTIFIC & INDUSTRIAL RESEARCH, priority 2017, dated 2021).
Like-named read-outs stand apart in the source and are kept apart here.

How the values were obtained:
human M2R = target: T1, human M2R (Homo sapiens, UniProt P08172); assay: GloSensor cAMP assay (Gi-mediated cAMP inhibition); type: cell-based; details: M2, agonist, N.A. = not active; for IC50: read-out: pIC50/pEC50 (Mean ± SEM) M2 (converted)
T1 construct: expressed in transfected cells; host or cells: HEK-293T
T1 sequence (P08172 1-466): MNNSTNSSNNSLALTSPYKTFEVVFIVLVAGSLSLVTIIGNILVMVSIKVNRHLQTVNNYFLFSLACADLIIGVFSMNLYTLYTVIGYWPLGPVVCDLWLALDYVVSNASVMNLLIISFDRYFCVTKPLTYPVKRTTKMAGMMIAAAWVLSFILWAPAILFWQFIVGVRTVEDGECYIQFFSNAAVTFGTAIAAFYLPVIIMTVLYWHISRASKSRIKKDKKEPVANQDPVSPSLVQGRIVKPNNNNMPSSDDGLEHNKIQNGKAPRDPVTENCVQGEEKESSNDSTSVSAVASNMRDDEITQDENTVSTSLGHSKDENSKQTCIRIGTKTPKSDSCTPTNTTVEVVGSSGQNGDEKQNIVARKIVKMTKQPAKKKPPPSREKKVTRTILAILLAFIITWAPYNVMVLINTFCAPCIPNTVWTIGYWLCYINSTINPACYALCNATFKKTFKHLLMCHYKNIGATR
Method: To measure M2 muscarinic receptor induced (Gi-mediated) cAMP inhibition, HEK-293T cells (procured from NCCS, Pune) were co-transfected with human M2R and luciferase based cAMP biosensor (pGloSensor™-22F plasmid; Promega) using PEImax method of transfection in the ratio of 1:1. The transfected cells were incubated at 37° C. in tissue culture incubator with 5% CO2 for 14-16 hours. For GloSensor cAMP assay, after overnight incubation, media from the plate was aspirated and 100 μl of sodium luciferin solution in drug buffer (1×HBSS (pH7.4) and 20 mM HEPES) was added to the cell plates. The plates were then incubated at 37° C. in tissue culture incubator with 5% CO2 for 90 minutes. After incubation, cells were treated with 20 μl of 6× diluted standard carbamoyl choline (10000 nM to 0.01 nM) along with test compounds (in triplicates) and were incubated in a humidified tissue culture incubator at 37° C. with 5% CO2 for 10-15 minutes to get a steady state condition. Ligand incubation was followed by addition of 20 μl of 7×(70 μM) forskoline (FSK) to the plate. FSK incubation was followed by incubation at 37° C. for 10-15 minutes and measurement of luminescence per well using luminescence plate reader (BMG Labtech). The results were plotted as inhibition of FSK stimulated cAMP response (relative luminescence units) using nonlinear regression analysis by Graph-Pad prism V.

human M3R = target: T2, human M3R (Homo sapiens, UniProt P20309); assay: NFAT-luciferase assay, M3; type: cell-based; set-up: IC50 activity, M3 muscarinic receptor antagonist: unit not given beside the values; details: for selectivity among muscarinic receptors (in words): M1, M3 and M5 antagonist profiling; for effectiveness relative to known drug darifenacin at M3: compared with darifenacin 8.9 pKi
T2 construct: expressed in transfected cells; host or cells: HEK-293T
T2 sequence (P20309 whole entry): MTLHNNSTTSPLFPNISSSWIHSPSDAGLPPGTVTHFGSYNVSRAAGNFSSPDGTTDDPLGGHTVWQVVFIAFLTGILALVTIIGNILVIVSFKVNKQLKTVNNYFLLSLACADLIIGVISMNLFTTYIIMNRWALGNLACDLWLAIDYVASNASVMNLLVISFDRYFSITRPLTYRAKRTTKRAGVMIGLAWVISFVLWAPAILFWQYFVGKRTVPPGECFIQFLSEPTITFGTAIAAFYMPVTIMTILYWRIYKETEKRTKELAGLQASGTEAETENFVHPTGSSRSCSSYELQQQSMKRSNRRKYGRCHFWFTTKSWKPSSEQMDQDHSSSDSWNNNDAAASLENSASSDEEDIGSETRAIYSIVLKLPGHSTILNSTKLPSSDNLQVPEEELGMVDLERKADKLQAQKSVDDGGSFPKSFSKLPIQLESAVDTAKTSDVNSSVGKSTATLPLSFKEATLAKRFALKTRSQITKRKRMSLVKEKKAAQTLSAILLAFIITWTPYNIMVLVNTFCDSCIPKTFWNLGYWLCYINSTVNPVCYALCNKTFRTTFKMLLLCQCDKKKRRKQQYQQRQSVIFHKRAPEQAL
Method: (§1) To measure the agonist or antagonist activity at M1, M3 and M5 muscarinic receptor, NFAT-luciferase activity was performed in HEK-293T cells (procured from NCCS, Pune) by co-transfecting with human M1R or M3R or M5R and pGL4.30 (luc2P/NFAT-RE/Hygro; Promega Corp,) in 96 well format. The transfected cells were incubated at 37° C. in tissue culture incubator with 5% CO2 for 14-16 hours. To determine the if the test compounds are agonist, the transfected cells were treated with either 20 μl/well of carbamoyl choline (as a positive control) at various concentrations (10000 nM to 0.01 nM) or with various concentrations of test compounds (in triplicates) and were further incubated for 12 hrs in a humidified tissue culture incubator at 37° C. with 5% CO2. For antagonist mode assay, test compound incubation was followed by addition of 20 μl of 7 μM carbamoylcholine (agonist) to the plate. Following 12-14 hrs of drug treatment, media from the plate was aspirated and 100 μl of sodium luciferin solution (10 mg/ml) was added and luminescence per well was recorded using luminescence plate reader (BMG Labtech).

human M1R = target: T3, human M1R (Homo sapiens, UniProt P11229); assay: NFAT-luciferase assay, M1; type: cell-based; details: antagonist
T3 construct: expressed in transfected cells; host or cells: HEK-293T
T3 sequence (P11229 1-460): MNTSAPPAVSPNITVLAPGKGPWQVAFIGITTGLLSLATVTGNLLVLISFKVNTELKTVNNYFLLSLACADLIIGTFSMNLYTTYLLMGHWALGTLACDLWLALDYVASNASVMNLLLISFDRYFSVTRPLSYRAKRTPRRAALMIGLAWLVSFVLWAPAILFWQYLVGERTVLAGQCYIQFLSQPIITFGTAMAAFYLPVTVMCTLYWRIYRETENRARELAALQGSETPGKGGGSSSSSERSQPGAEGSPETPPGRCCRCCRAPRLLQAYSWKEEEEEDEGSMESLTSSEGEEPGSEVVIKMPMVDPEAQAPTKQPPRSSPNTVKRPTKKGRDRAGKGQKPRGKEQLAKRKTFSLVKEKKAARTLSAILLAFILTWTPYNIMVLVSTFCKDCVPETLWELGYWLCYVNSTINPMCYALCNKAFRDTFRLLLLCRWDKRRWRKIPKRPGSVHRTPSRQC
Method: as §1

[1] = test system: Scopolamine induced memory deficit; assay: Morris water maze (MWM) test, scopolamine induced learning deficit; type: in vivo, mice; details: scopolamine alone 0.5 mg/kg i.p.
Text: (§2) All animal experiments and procedures were executed in accordance with the guidelines established in the guide for the care and use of laboratory animals and were approved by the institutional animal ethics committee (IAEC) of CSIR-Central Drug Research Institute, Lucknow, India. In this study, male C57BL/6J mice (6-8 weeks old) weighing 22-25 g were used. They were housed on a 12-h light/dark cycle (lights on at 8.00 am) and food and water were provided ad libitum. Animals were acclimatized to the experimental room 30 minutes prior to the beginning of behavioral procedures. For experimental purpose, animals were randomly divided into four groups: vehicle, RG-02, scopolamine and scopolamine along with RG-02. In scopolamine along with RG-02 group, RG-02 (10 mg/kg, i.p) was injected thirty minutes prior to the scopolamine (0.5 mg/kg, i.p.) injections.
The Morris water maze (MWM) test was performed according to Morris 1984, with slight modifications. Circular pool of dimensions-100 cm diameter and 45 cm depth, which was filled up to 25 cm from bottom with white colour water. Temperature of water was adjusted to 24-25° C. Pool was divided into four quadrants and a square platform of 10×10 cm in was placed into the tank at a fixed location in the centre of one of the four imaginary quadrants. Training sessions were conducted for 3 consecutive days and on 4th day a probe trial was performed. During training session, mouse was gently placed into the water facing the edge of the pool of one of the quadrant. If the mouse was able to find the platform before the 60 sec cut-off, it was allowed to stay over the platform for 5 more seconds followed by returning to its home cage. […] Total three trials/day were run for each mouse with minimum interval of 10-15 minutes between two trials, and latency to reach the platform was calculated. On the fourth day, for the probe trial, the platform was removed and the time spent in respective quadrant was calculated.

[2] = test system: Scopolamine induced memory deficit; assay: Novel object recognition (NOR) test, scopolamine induced memory deficit; type: in vivo, mice; details: scopolamine alone 0.5 mg/kg i.p., vs vehicle, p<0.05
Text: as §2
The NOR test was performed according to the protocol introduced by Ennaceur and Delacour (Ennaceur & Delacour, 1988) with slight modification.
The NOR task procedure consisted of three sessions—[…], familiarization and test session. During habituation session, the mouse was placed in an open field (Square box of 40×40×40 cm), facing the wall of the arena, and allowed to explore the entire arena for 10 minutes. Following habituation period of 10 minutes, the mouse was returned to its home cage.
Between every […] session, the whole arena was cleaned with 10% ethanol to reduce olfactory cues. […] During this session, the test animal was placed in the arena and was allowed to explore the entire arena with familiar and novel object, and its activity was also video recorded. To determine the retention of object memory, the recorded videos of test session were analyzed by independent observer who was unknown to treatment of mice to calculate the time spent in exploring both objects. Data are presented as % time of exploration of familiar or novel object, and discrimination index was calculated as per following equation: (Tn−Tf)/Tt: Discrimination Index […]

[3] = M3, antagonist, N.A. = not active, read-out: pIC50/pEC50 (Mean ± SEM) M3 (converted)

Structure (SMILES): O=C1CCC[C@@H]2[C@@H]1C[C@@]1(S(=O)(=O)c3ccccc3)C(=O)[C@@H]3c4ccccc4[C@H]1N32 [(−)-RG-02, (−)-(4aS,6S,6aR,11S,12aR)-6-(phenylsulfonyl)-1,2,3,4a,5,6,6a,12a-octahydro-6,11-methanoisoindolo[2,1-a]quinoline-4,13(11H)-dione]
- pIC50/pEC50 (Mean ± SEM) M2 (human M2R): 8.38 ± 0.35 (agonist)

Structure (SMILES): COC(=O)[C@@H]1c2ccccc2[C@@H]2[C@H](S(=O)(=O)c3ccccc3)C[C@@H]3C(=O)CCC[C@H]3N12 [RG-04, (4aS,6R,6aR,11S,12aR)-methyl 4-oxo-6-(phenylsulfonyl)-1,2,3,4,4a,5,6,6a,11,12a-decahydroisoindolo[2,1-a]quinoline-11-carboxylate]
- IC50 (human M2R): 0.566 µM

Structure (SMILES): CCOC(=O)[C@@H]1c2ccccc2[C@@H]2[C@H](S(=O)(=O)c3ccccc3)C[C@@H]3C(=O)CCC[C@H]3N12 [RG-05, (4aS,6R,6aR,11S,12aR)-ethyl 4-oxo-6-(phenylsulfonyl)-1,2,3,4,4a,5,6,6a,11,12a-decahydroisoindolo[2,1-a]quinoline-11-carboxylate]
- IC50 (human M2R): 2.16 µM

Structure (SMILES): Cc1ccc(S(=O)(=O)[C@]23C[C@@H]4C(=O)CCC[C@H]4N4[C@H](C2=O)c2ccccc2[C@@H]43)cc1 [RG-06, (4aS,6S,6aR,11S,12aR)-6-tosyl-1,2,3,4a,5,6,6a,12a-octahydro-6,11-methanoisoindolo[2,1-a]quinoline-4,13(11H)-dione]
- antagonist activity at M3 receptor (in words) (human M3R): high affinity antagonist of M3 receptor
- selectivity among muscarinic receptors (in words) (human M3R): selective M3 muscarinic receptor antagonist
- IC50 (human M3R; [3]): 0.000129 µM
- IC50 activity, M3 muscarinic receptor antagonist (human M3R; as worded in closing text): 9.89
- effectiveness relative to known drug darifenacin at M3 (human M3R): tenfold more effective

Structure (SMILES): Cc1ccc(S(=O)(=O)[C@]23C[C@H]4C(=O)CC[C@H]4N4[C@H](C2=O)c2ccccc2[C@@H]43)cc1 [RG-09, (3aR,5S,5aR,10S,11aR)-5-tosyl-3a,4,5,5a,10,11a-hexahydro-1H-5,10-methanocyclopenta[5,6]pyrido[2,1-a]isoindole-3,12(2H)-dione]
- antagonist activity at M3 receptor (in words) (human M3R): high affinity antagonist of M3 receptor
- selectivity among muscarinic receptors (in words) (human M3R): selective M3 muscarinic receptor antagonist
- IC50 (human M3R; as worded in closing text, read-out: IC50 activity, M3 muscarinic receptor antagonist (converted)): 0.000102 µM
- effectiveness relative to known drug darifenacin at M3 (human M3R): tenfold more effective

Structure (SMILES): Cc1ccc(S(=O)(=O)[C@]23CC4=C(OS(=O)(=O)C(F)(F)F)CCC[C@H]4N4[C@H](C2=O)c2ccccc2[C@@H]43)cc1 [RG-13, (6S,6aR,11S,12aR)-13-oxo-6-tosyl-1,2,3,5,6,6a,11,12a-octahydro-6,11-methanoisoindolo[2,1-a]quinolin-4-yl trifluoromethanesulfonate]
- antagonist activity at M3 receptor (in words) (human M3R): high affinity antagonist of M3 receptor
- selectivity among muscarinic receptors (in words) (human M3R): nonselective muscarinic receptor antagonist
- IC50 (human M3R; [3]): 0.000107 µM
- IC50 (human M1R; M1, N.A. = not active, read-out: pIC50/pEC50 (Mean ± SEM) M1 (converted)): 0.871 µM
- IC50 (human M1R; read-out: IC50 at M1 receptor): ≤ 1 µM

Structure (SMILES): CN1[C@@H]2C[C@@H](OC(=O)[C@H](CO)c3ccccc3)C[C@H]1[C@@H]1O[C@@H]12 [scopolamine, reference compound]
- latency to reach the platform ([1]; Day-3): increased latency to reach the platform
- time in quadrant with platform (probe trial) ([1]; vs vehicle or RG-02): spent lesser time in quadrant with platform
- exploration time for the novel object [2]: marked reduction in the exploration time for the novel object
